Measurements: EP1844039B1, “5-SUBSTITUTED QUINOLINE AND ISOQUINOLINE DERIVATIVES, A METHOD FOR THE PRODUCTION THEREOF AND THEIR USE AS ANTIPHLOGISTICS” (priority 2004, dated 2006)

Legend:
[1] = Skin atrophy induction, 18 days daily local treatment, skin fold thickness measurement; assay type: in vivo; details: rats
From the text: Eine weitere, besonders nach lokaler Therapie, auftretende unerwünschte Wirkung ist die Induktion einer Hautatrophie, die zu einem Verlust der Haut an Dicke, Elastizität und letztlich der mechanischen Belastbarkeit der Haut führt. Das Potential einer Substanz, Hautatrophie zu induzieren, kann in Ratten bestimmt werden. Die Tiere werden dafür 18 Tage täglich lokal in äquieffektiven Dosierungen mit den Testsubstanzen behandelt. Mittels einer Hautfaltendickenmessung läßt sich die Abnahme der Hautdicke über die Behandlungszeit verfolgen.
Im Vergleich zu Clobetasolpropionat, das bei einer Konzentration von 0.01 % (maximale anti-inflammatorische Wirkung wird erreicht) zu einer 65%igen Reduktion der Hautdicke führt, ist bei Beispiel 1 bei einer Konzentration von 0.1 % (maximale anti-inflammatorische Wirkung wird erreicht) nur eine 41 %ige Reduktion festzustellen.
Dieser Vorteil ist auch gegenüber den Substanzen aus der Anmeldung WO03/082827 zu sehen; beispielsweise induziert das Eutomer von Beispiel 36 bereits bei einer Konzentration von 0.06% (maximale anti-inflammatorische Wirkung) eine 60%ige Reduktion der Hautdicke.

IL-8 = test: Inhibition of LPS-induced IL-8 secretion in THP-1 cells (ELISA of supernatant); assay type: cell-based, menschlichen; details: for Efficacy: Efficacy von Dexamethason = 100%; for IC50: Homo sapiens
From the text: Die erfindungsgemäßen Verbindungen der allgemeinen Formel (IIa) und (IIb) hemmen die durch Lipopolysaccharid (LPS) induzierte Sekretion des Zytokins IL-8 in der menschlichen Monozytenzelline THP-1.

[2] = system: Tyrosinaminotranferase (TAT); test: Induction of tyrosine aminotransferase (TAT) in hepatoma cells, 24 h treatment, photometric; assay type: cell-based, Ratten; details: rat hepatoma cells; for Efficacy: Efficacy von Dexamethason = 100%
From the text: Immunologische Grundlagen, Pharmakologie und Therapierichtlinien, Wissenschafliche Verlagsgesellschaft mbH, Stuttgart, 1998]. Ursache hierfür ist die Stimulation der Gluconeogenese in der Leber durch Induktion der hierfür verantwortlichen Enzyme und durch freie Aminosäuren, die aus dem Abbau von Proteinen (katabole Wirkung der Glucocorticoide) entstehen. Ein Schlüsselenzym des katabolen Stoffwechsels in der Leber ist die Tyrosinaminotranferase (TAT). Die Aktivität dieses Enzyms kann photometrisch aus Zellkulturen von behandelten Ratten-Hepatomzellen bestimmt werden. Die Zellen werden für 24 Stunden mit den Testsubstanzen behandelt und anschließend die TAT-Aktivität gemessen.

Row | IC50 (IL-8) | EC50 [2] | Structure (SMILES) | Reduktion der Hautdicke ([1]; concentration 0.01 % (maximal anti-inflammatory effect reached)) | Efficacy (IL-8) | Efficacy [2] | Reduktion der Hautdicke ([1]; concentration 0.1 % (maximal anti-inflammatory effect reached))
1 | 13 nM | 2.6 nM | C[C@]12C=CC(=O)C=C1CC[C@@H]1[C@@H]2[C@@H](O)C[C@@]2(C)[C@H]1CC[C@]2(O)C(=O)CO [Prednisolon, reference compound] | – | 96% | 103% | –
2 | 8.5 nM | 4 nM | Cn1ccc2c(NCC(O)(CC(C)(C)c3cc(F)cc4c3OCC4)C(F)(F)F)cccc2c1=O (racemic) [Beispiel 11, 5-[4-(5-Fluor-2,3-dihydrobenzofuran-7-yl)-2-hydroxy-4-methyl-2-trifluormethylpentylamino]-2-methylisochinol-1(2H)-on] | – | 61% | 86% | –
3 | 21 nM | 10 nM | Cc1ccc2c(NCC(O)(CC(C)(C)c3cc(F)cc4c3OCC4)C(F)(F)F)ccc(F)c2n1 (racemic) [Beispiel 10, 8-Fluor-5-[4-(5-Fluor-2,3-dihydrobenzofuran-7-yl)-2-hydroxy-4-methyl-2-trifluormethyl-pentylamino]-2-methylchinolin] | – | 86% | 92% | –

The remaining lines, values behind:

Row | Structure (SMILES) | IC50 (IL-8) | EC50 [2] | Reduktion der Hautdicke ([1]; concentration 0.01 % (maximal anti-inflammatory effect reached)) | Efficacy (IL-8) | Efficacy [2] | Reduktion der Hautdicke ([1]; concentration 0.1 % (maximal anti-inflammatory effect reached))
4 | CCC(=O)O[C@]1(C(=O)CCl)[C@@H](C)C[C@H]2[C@@H]3CCC4=CC(=O)C=C[C@]4(C)[C@@]3(F)[C@@H](O)C[C@@]21C [Clobetasolpropionat, reference compound] | – | – | 65% | – | – | –
5 | Cc1ccc2c(NCC(O)(CC(C)(C)c3cc(F)cc4c3OCC4)C(F)(F)F)cccc2n1 (racemic) [Beispiel 1, 5-[4-(5-Fluor-2,3-dihydrobenzofuran-7-yl)-2-hydroxy-4-methyl-2-trifluormethyl-pentylamino]-2-methylchinolin] | 5.9 nM | 3.7 nM | – | 74% | 93% | 41%
